{"source": "patent US20050153870A1", "about": "“Medicinal composition for diagnosis, prevention, or therapy of multiple risk factor syndrome” (priority 2002, published 2005)", "key": {"quail": {"test_system": "quail", "assay": "Arteriosclerosis suppressing effect, quail on cholesterol feed", "type": "in vivo", "details": "poultry feed containing 2% of cholesterol, 9 months, 0.0125 to 0.2% added to feed", "source_text": "(§1) As to prevention/therapy of arteriosclerosis, a big difference is observed in effect between medicaments conceivably effective in improving arteriosclerosis, such as fibrate series medicament, thiazolidine series medicament, probucol, and statin series medicament and a compound of the present invention."}, "DOCA hypertension rat [1]": {"test_system": "DOCA hypertension rat", "assay": "Periarteritis nodosa", "type": "in vivo", "details": "50 mg/kg perorally, DOCA/saline administered rat having one of the kidneys excised out", "experimental": "Rats having a cardiovascular disease due to hypertension, often develop periarteritis nodosa, which is typical blood-vessel inflammation caused in thin and small artery such as mesenteric artery. […] These are preventive effects. […] To explain more specifically, mineral corticoid is administered to rats having one of the kidneys excised out and raised for a month by giving saline as drinking water. After confirming onset of periarteritis nodosa, administration of mineral corticoid and saline is stopped and the rats are brought back under normal feeding conditions. As a result, the blood pressure of the rats gradually decreases near a normal value and periarteritis nodosa heals and disappears."}, "[2]": {"test_system": "patients with type II diabetes", "assay": "Glucose tolerance test in Clinical test II", "type": "in vivo, human", "details": "50 g of glucose perorally at fasting; after therapy of 12 weeks vs before; 30 patients", "experimental": "A glucose tolerance test were performed by perorally taking 50 g of glucose at fasting time in the early morning and measuring concentrations of blood sugar and urine sugar with time. A solid line represents the results immediately before therapy and a broken line represents immediately after the therapy of 12 weeks. Since a process of a glucose tolerance test more or less varied depending upon medical institutions, data of all patients (30 patients) with type II diabetes participated in this test in a single and the same institution are statistically analyzed and shown. […] Note that, in the FIGS. 2 and 3, numerical values each represent average value±standard deviation."}, "DOCA hypertension rat [3]": {"test_system": "DOCA hypertension rat", "assay": "Hypercardia, thickened arteries, edema in organs", "type": "in vivo", "source_text": "as §1"}, "Zucker rats [4]": {"test_system": "Zucker rats", "assay": "Blood pressure of Zucker rat (Example 8)", "type": "in vivo", "details": "for blood pressure, change vs Zucker control group / blood pressure: 0.1% in feed; for blood pressure: AS-6 group at 0th week 144 ± 6", "experimental": "Zucker rats were raised for 4 weeks with feed in which 4-0-carboxylmethyl ascochlorin (AS-6) was mixed in a content of 0.1%. At the 0th, 2nd and 4th week of initiation of feeding, blood pressure was measured (6 rats/group)."}, "C57BL/6j-ob/ob mice": {"test_system": "C57BL/6j-ob/ob mice", "assay": "AS-6 in feed to ob/ob mice (Example 3)", "type": "in vivo, mouse", "details": "0.1% in feed, 1 week", "experimental": "C57BL/6j-ob/ob mice, which were model animals of multiple risk factor syndrome, were raised for a week with powered feed in which an ascochlorin derivative, 4-O-carboxymethylascochlorin (AS-6), was mixed in a content of 0.1%. Thereafter, the weight, blood sugar, blood insulin, and blood neutral fat were measured."}, "Zucker rats [5]": {"test_system": "Zucker rats", "assay": "Glucose tolerance test using Zucker rats (Example 6)", "type": "in vivo, rat", "experimental": "The effect of 4-O-carboxymethylascochlorin (AS-6) in a glucose tolerance test were checked by using Zucker rats. Zucker control rats, Zucker AS-6 administered rats (20 mg/kg, perorally for a week), and Lean control rats were fasted overnight. Next morning, blood was taken from the caudal vein, and thereafter, 2 g/kg of glucose was perorally administered. Blood was taken from the caudal vein 30, 60 and 120 minutes after the administration and checked for blood sugar (7 mice/group)."}, "Db/db mouse, Zucker rat": {"test_system": "Db/db mouse, Zucker rat", "assay": "Insulin sensitivity test", "type": "in vivo", "details": "feed containing 0.1% for one week, hereditary obese animal"}, "Zucker rats [6]": {"test_system": "Zucker rats", "assay": "AS-6 in feed to Zucker rats for 10 weeks (Example 5)", "type": "in vivo, rat", "details": "0.12% in feed", "experimental": "Zucker rats were divided into two groups. One group was raised with commercially available feed to which 4-O-carboxymethylascochlorin (AS-6) was mixed up to a content of 0.12%. The other group and normal Lean-rat littermate group were raised for 10 weeks with the same commercially available feed containing no AS-6. Thereafter, body weight, white adipose cell weight, blood insulin, blood sugar, and blood lipid were measured (7 mice/group)."}, "Db/db mouse, ob/ob mouse": {"test_system": "Db/db mouse, ob/ob mouse", "assay": "Improvement of polydipsia and polyurea", "type": "in vivo", "details": "in feed, hereditary diabetic obese mouse"}, "[7]": {"details": "Zucker rats, 20 mg/kg perorally for a week"}}, "note": "Marks after values point to notes of the source that are not given here."}
{"compound": "COc1c(Cl)c(C)c(C=O)c(O)c1C/C=C(C)/C=C/[C@@]1(C)[C@H](C)CCC(=O)[C@@H]1C", "note": "[4-O-methylascochlorin]", "values": [{"measurement": "atherosclerosis of the aorta, hypercholesterolemia, deposition of cholesterol onto the heart and the aorta", "setting": "quail", "result": "the aforementioned changes are suppressed."}, {"measurement": "Periarteritis nodosa", "setting": "DOCA hypertension rat [1]", "result": "significantly suppressed. When ascofuranone is perorally administered to SHR of a"}, {"measurement": "blood sugar level in glucose tolerance test (FIG. 2)", "setting": "[2]", "result": "significantly decreases blood sugar level"}, {"measurement": "urine sugar level in glucose tolerance test (FIG. 3)", "setting": "[2]", "result": "significantly decreases the concentration of glucose contained in the urine"}, {"measurement": "edema of various organs including the kidney", "setting": "DOCA hypertension rat [3]", "result": "such as hypercardia and thickened arteries, and suppresses edema of various"}, {"measurement": "lesions associated with cardiovascular diseases such as hypercardia and thickened arteries", "setting": "DOCA hypertension rat [3]", "result": "4-0-methylascochlorin alleviates lesions associated with cardiovascular diseases"}]}
{"compound": "CC(C=CC1(C)C(C)CCC(=O)C1C)=CCc1c(O)c(C=O)c(C)c(Cl)c1OCC(=O)O", "note": "(stereo not shown) [AS-6, 4-O-carboxymethylascochlorin]", "values": [{"measurement": "blood pressure, change vs Zucker control group", "setting": "Zucker rats [4]; 2nd week", "result": "−13.7%(**)"}, {"measurement": "blood pressure", "setting": "Zucker rats [4]; 2nd week, Zucker control 153 ± 6", "result": "132 ± 5"}, {"measurement": "blood pressure, change vs Zucker control group", "setting": "Zucker rats [4]; 4th week", "result": "−19.9%(**)"}, {"measurement": "blood pressure", "setting": "Zucker rats [4]; 4th week, Zucker control 156 ± 7", "result": "125 ± 6"}, {"measurement": "decrease in blood pressure in comparison with the Zucker control group", "setting": "Zucker rats [4]; 2nd week after the initiation of feeding", "result": 13.7, "unit": "%"}, {"measurement": "decrease in blood pressure in comparison with the Zucker control group", "setting": "Zucker rats [4]; 4th week after the initiation of feeding", "result": 19.9, "unit": "%"}, {"measurement": "Blood sugar, change vs ob/ob control group", "setting": "C57BL/6j-ob/ob mice", "result": "−32.4", "unit": "%*"}, {"measurement": "Body weight, change vs ob/ob control group", "setting": "C57BL/6j-ob/ob mice", "result": "ns"}, {"measurement": "Cholesterol, change vs ob/ob control group", "setting": "C57BL/6j-ob/ob mice", "result": "ns"}, {"measurement": "Free fatty acid, change vs ob/ob control group", "setting": "C57BL/6j-ob/ob mice", "result": "−43.6", "unit": "%**"}, {"measurement": "Insulin, change vs ob/ob control group", "setting": "C57BL/6j-ob/ob mice", "result": "−33.8", "unit": "%"}, {"measurement": "Neutral fat, change vs ob/ob control group", "setting": "C57BL/6j-ob/ob mice", "result": "−61.0", "unit": "%**"}, {"measurement": "Free fatty acid", "setting": "C57BL/6j-ob/ob mice; ob/ob control 1.224 ± 0.072", "result": "0.690 ± 0.078", "unit": "mEq/L"}, {"measurement": "Body weight", "setting": "C57BL/6j-ob/ob mice; ob/ob control 48.5 ± 0.6", "result": "47.8 ± 0.6", "unit": "g"}, {"measurement": "Insulin", "setting": "C57BL/6j-ob/ob mice; ob/ob control 73.9 ± 16.7", "result": "48.9 ± 8.2", "unit": "μU/mL9"}, {"measurement": "Neutral fat", "setting": "C57BL/6j-ob/ob mice; ob/ob control 162.4 ± 16.0", "result": "63.2 ± 7.2", "unit": "mg/dL"}, {"measurement": "Cholesterol", "setting": "C57BL/6j-ob/ob mice; ob/ob control 268.5 ± 24.2", "result": "249.7 ± 12.1", "unit": "mg/dL"}, {"measurement": "blood sugar", "setting": "C57BL/6j-ob/ob mice; ob/ob control 360.4 ± 44.9", "result": "243.8 ± 15.6", "unit": "mg/dL"}, {"measurement": "risk factors except for body weight and blood cholesterol", "setting": "C57BL/6j-ob/ob mice; ob/ob mice", "result": "significantly reduced"}, {"measurement": "blood sugar, change vs Zucker control group", "setting": "Zucker rats [5]; 0 minute after glucose loading", "result": "−19.7%(*)"}, {"measurement": "blood sugar", "setting": "Zucker rats [5]; 20 mg/kg perorally for a week, 0 minute after glucose loading (fasted overnight), Zucker control 107.5 ± 5.0", "result": "86.3 ± 4.5"}, {"measurement": "blood sugar", "setting": "Zucker rats [5]; 20 mg/kg perorally for a week, 30 minutes after glucose loading, Zucker control 235.1 ± 9.6", "result": "167.5 ± 3.8"}, {"measurement": "blood sugar", "setting": "Zucker rats [5]; 20 mg/kg perorally for a week, 60 minutes after glucose loading, Zucker control 275.8 ± 13.2", "result": "220.2 ± 5.0"}, {"measurement": "blood sugar", "setting": "Zucker rats [5]; 20 mg/kg perorally for a week, 120 minutes after glucose loading, Zucker control 290.3 ± 4.6", "result": "202.8 ± 3.6"}, {"measurement": "blood sugar, change vs Zucker control group", "setting": "Zucker rats [5]; 30 minutes after glucose loading", "result": "−28.8%(**)"}, {"measurement": "blood sugar, change vs Zucker control group", "setting": "Zucker rats [5]; 60 minutes after glucose loading", "result": "−20.2%(*)"}, {"measurement": "blood sugar, change vs Zucker control group", "setting": "Zucker rats [5]; 120 minutes after glucose loading", "result": "−30.1%(**)"}, {"measurement": "blood sugar level 30, 60, 120 minutes after glucose loading", "setting": "Zucker rats [5]; [7]", "result": "significant decreases"}, {"measurement": "decrease of fasting blood sugar level", "setting": "Zucker rats [5]; [7]", "result": 19.7, "unit": "%"}, {"measurement": "sensitivity to insulin", "setting": "Db/db mouse, Zucker rat", "result": "insulin was significantly improved."}, {"measurement": "Blood sugar (full feeding), change vs Zucker control group", "setting": "Zucker rats [6]", "result": "ns"}, {"measurement": "Body weight, change vs Zucker control group", "setting": "Zucker rats [6]", "result": "ns"}, {"measurement": "Cholesterol, change vs Zucker control group", "setting": "Zucker rats [6]", "result": "ns"}, {"measurement": "Free fatty acid, change vs Zucker control group", "setting": "Zucker rats [6]", "result": "−50.0", "unit": "%"}, {"measurement": "Insulin, change vs Zucker control group", "setting": "Zucker rats [6]", "result": "−23.4", "unit": "%"}, {"measurement": "Neutral fat, change vs Zucker control group", "setting": "Zucker rats [6]", "result": "−49.8", "unit": "%"}, {"measurement": "Phospholipid, change vs Zucker control group", "setting": "Zucker rats [6]", "result": "−14.3", "unit": "%"}, {"measurement": "White adipose cells, change vs Zucker control group", "setting": "Zucker rats [6]", "result": "ns"}, {"measurement": "Free fatty acid", "setting": "Zucker rats [6]; Zucker control 1.391 ± 0.110", "result": "0.696 ± 0.069"}, {"measurement": "White adipose cells", "setting": "Zucker rats [6]; Zucker control 4.06 ± 0.09", "result": "3.66 ± 0.11"}, {"measurement": "Cholesterol", "setting": "Zucker rats [6]; Zucker control 117.4 ± 4.8", "result": "123.6 ± 7.8"}, {"measurement": "Insulin", "setting": "Zucker rats [6]; Zucker control 176.3 ± 14.7", "result": "135.1 ± 15.6"}, {"measurement": "Phospholipid", "setting": "Zucker rats [6]; Zucker control 340.8 ± 12.0", "result": "292.1 ± 8.9"}, {"measurement": "Body weight", "setting": "Zucker rats [6]; Zucker control 362 ± 13", "result": "358 ± 15"}, {"measurement": "Neutral fat", "setting": "Zucker rats [6]; Zucker control 928.6 ± 47.7", "result": "466.3 ± 60.2"}, {"measurement": "Blood sugar (full feeding)", "setting": "Zucker rats [6]; Zucker control printed 73.0 ± 14.5", "result": "174.3 ± 19.0"}, {"measurement": "insulin, free fatty acid, neutral fat and phospholipid", "setting": "Zucker rats [6]; Zucker rats", "result": "significantly reduced"}, {"measurement": "amount of drinking water", "setting": "Db/db mouse, ob/ob mouse", "result": "obese mouse, the amount of drinking water decreases in a dose-dependent manner,"}, {"measurement": "amount of sugar excreted in the urine", "setting": "Db/db mouse, ob/ob mouse", "result": "excreted in the urine significantly decreases."}]}
